In patent publication EP2050758A1, “New polypeptides and uses thereof in cancer therapy” (INSTITUT NATIONAL DE LA SANTE ET DE LA RECHERCHE MEDICALE …, priority 2007, dated 2009):

Tests used:
ATPase domain of HSP70 = conditions: MAMELAK & LINGWOOD, J. Biol. Chem. 2001; cited from earlier work
B16F10 melanoma cells = assay: Tumor growth of aptamer-expressing B16F10 cells injected subcutaneously into syngeneic mice; type: in vivo, C57/B16 mice; conditions: mice bearing control tumors (wt B16F10 and B16F10-A0), cisplatin 10 mg/kg
Description: To determine whether the chemosensitizing effect of A8 and A18 aptamers observed in vitro was also detected in vivo, mouse B16F10 melanoma cells were stably transfected with the aptamer expression vectors (A8, A18 and, as a control, A0). Stably transfected cells were selected using G418 (SIGMA) according to the manufacturer's instruction.
Exponentially growing B16F10 cells (wild type and aptamers-transfected) were harvested, washed in PBS, and resuspended in RPMI medium without foetal bovine serum (FBS) to a concentration of 2x10^5 B16F10 cells in 100 µl. B16F10 cells were then injected subcutaneously into the right side of syngeneic C57/B16 mice (9 mice/group). Next, some mice bearing B16F10-A0, B16F10-A8 or B16F10-A18 tumors were treated with cisplatin (10 mg/kg), given intraperitonealy as a single dose at day 6 after tumor cells injection. Tumor volume was evaluated for all mice every two days, using a caliper to measure two perpendicular diameters.

| Compound | binding to the ATPase domain of HSP70 (ATPase domain of HSP70) | effect of cisplatin treatment on the size of the tumors (B16F10 melanoma cells) |
| --- | --- | --- |
| 3'-sulfogalactosylglycerolipid [SGG] | known to bind | – |
| N.N.[Cl][Pt][Cl] [cisplatin] | – | slightly reduced the size of the tumors |
| 3'-sulfogalactosyl ceramide [SGC] | known to bind | – |
